Converted amounts (≈) assume the structure as drawn.

Series [1] is described as follows: Half life in Sprague-Dawley rat at 10 mg/kg, po. Conditions: in vivo. The series is classed as ADME, organism-based.
Series [2] in a line: AUC (0 to 24 hrs) in Sprague-Dawley rat at 10 mg/kg, po. On the set-up: time < 24 hr, route oral, dose 10 mg/kg. Conditions: in vivo. In kind it is ADME, organism-based.
Series [3] can be described thus: Cmax in Sprague-Dawley rat at 10 mg/kg, po. The series is classed as ADME, organism-based. Conditions: in vivo. On the set-up: route oral, dose 10 mg/kg.
A further series in a line: in vivo. To be noted: Sprague-Dawley, rat, iv, 1 mg/kg.
Series [4] can be described thus: AUC (0 to 24 hrs) in monkey at 2 mg/kg, po. In kind it is ADME, organism-based, Macaca mulatta. On the set-up: time < 24 hr, route oral, dose 2 mg/kg. To be noted: rhesus monkey, in vivo.
The nature of series [5]: Oral bioavailability in monkey at 2 mg/kg. In kind it is ADME, organism-based, Macaca mulatta. Conditions: rhesus monkey, in vivo.
Series [6] can be described thus: AUC (0 to 24 hrs) in monkey at 0.5 mg/kg, iv. The series is classed as ADME, organism-based, Macaca mulatta. Details: time < 24 hr, route intravenous, dose 0.5 mg/kg. To be noted: rhesus monkey, in vivo.
Series [7] in a line: Half life in monkey at 2 mg/kg, po. The series is classed as ADME, organism-based, Macaca mulatta. To be noted: rhesus monkey, in vivo.
Series [8] in a line: Volume of distribution at steady state in monkey at 0.5 mg/kg, iv. In kind it is ADME, organism-based, Macaca mulatta. Conditions: rhesus monkey, in vivo, read-out: Vdss.
A short description of series [9]: Half life in monkey at 0.5 mg/kg, iv. Conditions: rhesus monkey, in vivo. In kind it is ADME, organism-based, Macaca mulatta.
The nature of series [10]: Clearance in monkey at 0.5 mg/kg, iv. In kind it is ADME, organism-based, Macaca mulatta. To be noted: rhesus monkey, in vivo.
Series [11] in a line: Oral bioavailability in dog at 2 mg/kg. In kind it is ADME, organism-based, Canis lupus familiaris. To be noted: in vivo.
Series [12] is described as follows: Half life in dog at 2 mg/kg, po. The series is classed as ADME, organism-based, Canis lupus familiaris. Conditions: in vivo.
A short description of series [13]: AUC (0 to 24 hrs) in dog at 2 mg/kg, po. In kind it is ADME, organism-based, Canis lupus familiaris. On the set-up: time < 24 hr, route oral, dose 2 mg/kg. To be noted: in vivo.
Series [14] is described as follows: AUC (0 to 24 hrs) in dog at 0.5 mg/kg, iv. The series is classed as ADME, organism-based, Canis lupus familiaris. Details: time < 24 hr, route intravenous, dose 0.5 mg/kg. Conditions: in vivo.
Series [15] in a line: Clearance in dog at 0.5 mg/kg, iv. In kind it is ADME, organism-based, Canis lupus familiaris. To be noted: in vivo.
Series [16] can be described thus: Volume of distribution at steady state in dog at 0.5 mg/kg, iv. The series is classed as ADME, organism-based, Canis lupus familiaris. To be noted: in vivo, read-out: Vdss.
The nature of series [17]: Oral bioavailability in mouse at 2 mg/kg. In kind it is ADME, organism-based. Conditions: in vivo.
The nature of series [18]: Half life in dog at 0.5 mg/kg, iv. In kind it is ADME, organism-based, Canis lupus familiaris. To be noted: in vivo.
The nature of series [19]: AUC(0 to 24 hrs) in mouse at 2 mg/kg, po. The series is classed as ADME, organism-based. Details: time < 24 hr, route oral, dose 2 mg/kg. Conditions: in vivo.
A short description of series [20]: Volume of distribution at steady state in mouse at 1 mg/kg, iv. The series is classed as ADME, organism-based. Conditions: in vivo, read-out: Vdss.
Series [21] is described as follows: AUC(0 to 24 hrs) in mouse at 1 mg/kg, iv. In kind it is ADME, organism-based. On the set-up: time < 24 hr, route intravenous, dose 1 mg/kg. Conditions: in vivo.
A short description of series [22]: Half life in mouse at 1 mg/kg, iv. The series is classed as ADME, organism-based. Conditions: in vivo.
A short description of series [23]: Clearance in mouse at 1 mg/kg, iv. The series is classed as ADME, organism-based. Conditions: in vivo.
The nature of series [24]: Metabolic stability in human Hepatocyte assessed as half life. The series is classed as ADME, tissue-based. To be noted: hepatocytes.
Series [25] in a line: Protein binding in human plasma. In kind it is ADME, cell-free. To be noted: read-out: PPB (converted).
The nature of series [26]: Apparent permeability across apical to basolateral side. In kind it is ADME. To be noted: not told.
The nature of series [27]: Apparent permeability across basolateral to apical side. In kind it is ADME. To be noted: not told.
Series [28] can be described thus: Metabolic stability in dog liver microsomes assessed as intrinsic clearance. In kind it is ADME, Canis lupus familiaris, Microsome. Conditions: read-out: CLH. (Liver microsomes are vesicles of endoplasmic reticulum, rich in cytochrome P450 enzymes.)
Series [29] is described as follows: Metabolic stability in monkey liver microsomes assessed as intrinsic clearance. The series is classed as ADME, Macaca mulatta, Microsome. To be noted: rhesus monkey, read-out: CLH.
Series [30] is described as follows: Metabolic stability in mouse liver microsomes assessed as intrinsic clearance. In kind it is ADME, Microsome. To be noted: read-out: CLH.
Series [31] can be described thus: Metabolic stability in rat liver microsomes assessed as intrinsic clearance. Conditions: read-out: CLH. In kind it is ADME, Microsome.
The nature of series [32]: Metabolic stability in human liver microsomes assessed as intrinsic clearance. The series is classed as ADME, Microsome. To be noted: read-out: CLH.
The next series in a line: physchem. Conditions: FaSSIF, pH 6.5.
Series [33] in a line: Half life in Sprague-Dawley rat at 5 mg/kg, po. To be noted: in vivo. In kind it is ADME, organism-based.
A short description of series [34]: Oral bioavailability in Sprague-Dawley rat at 5 mg/kg. In kind it is ADME, organism-based. Conditions: in vivo.
Series [35] in a line: Cmax in Sprague-Dawley rat at 5 mg/kg, po. On the set-up: route oral, dose 5 mg/kg. Conditions: in vivo. The series is classed as ADME, organism-based.
Series [36] in a line: AUC in Sprague-Dawley rat at 5 mg/kg, po. The series is classed as ADME, organism-based. On the set-up: dose 5 mg/kg. To be noted: in vivo.

Description for in vivo: Clearance in Sprague-Dawley rat at 1 mg/kg, iv
Description for physchem: Solubility in FassIF at pH 6.5

Consider `COc1cc(NC(=O)c2cccc(C(F)(F)F)n2)cc2cn(CCC(C)(C)O)nc12`, for which the half-life (in general, the time in which the quantity being followed falls by half) in [1] was 3.5 h. Besides, in series [2], the AUC(0-t) – broadly, exposure summed from dosing to a finite time, without extrapolation to infinity – at 24 h turned out to be 34500 ng·h/mL. Further, the Cmax – broadly, the peak of the concentration-time curve – in series [3] turned out to be 3320 ng/mL. In addition, the clearance (commonly a measure of how efficiently the substance is removed, as volume per time) in the series “in vivo” is 5.5 mL/min/kg.
Take `CN(C)CCn1cc2cc(NC(=O)c3cccc(C(F)(F)F)n3)c(C(C)(C)O)cc2n1`: the AUC(0-t) at 24 h was 3670 ng·h/mL in series [4]; 1870 ng·h/mL in [6]; 85.3 ng·h/mL in series [13]; 148 ng·h/mL in series [14]; 1300 ng·h/mL in [19]; 966 ng·h/mL in series [21]. The compound further showed an AUC(0-t) at 24 h in series [2] of 11900 ng·h/mL. Further, the bioavailability (in general, dose-corrected exposure relative to a reference, in per cent) in series [5] stood at 49%; in series [11] it was 14.4%; in series [17] it was 67.3%. In addition, the half-life is 3.5 h in [7]; 1.96 h in series [9]; 6.4 h in series [12]; 0.72 h in series [18]; 1.62 h in [22]; 9.72 h in series [24]. The half-life in series [1] is 3.3 h. The values for the Vd in [8], in series [16] and in series [20] were 0.67 L/kg, 2.63 L/kg and 2.43 L/kg, respectively. The clearance in series [10] stood at 4.86 mL/min/kg; in series [15], 55.6 mL/min/kg; in [23] it was 17.1 mL/min/kg; in “in vivo” it was 8.3 mL/min/kg. Moreover, the fraction unbound in [25] is 0.014. For the same compound, in [26], the Papp A→B (usually the apparent permeability from the apical to the basolateral side of a cell layer) worked out at 27.3 ×10⁻⁶ cm/s. Also, the Papp B→A (in general, the apparent permeability from the basolateral to the apical side of a cell layer) in [27] came to 22.7 ×10⁻⁶ cm/s. In addition, the CLint scaled came out at 116 mL/min/kg in series [28]; 1.96 mL/min/kg in series [29]; 8.82 mL/min/kg in series [30]; 15 mL/min/kg in [31]; 5.25 mL/min/kg in series [32]. Further, the Cmax in series [3] was determined as 2110 ng/mL. Also, the solubility (as a rule, the concentration that dissolves in the medium under given conditions) in “physchem” was found to be 92.3 µM (≈ 40.2 µg/mL).
In [33], `CC(C)(O)CCn1cc2cc(NC(=O)c3cccc(C(F)(F)F)n3)c(C(C)(C)O)cc2n1` gave a half-life of 3.6 h. Besides, the bioavailability in [34] was determined as 84%. The Cmax in series [35] was 2310 ng/mL. In addition, the AUC (commonly concentration integrated over time) in series [36] amounted to 18400 ng·h/mL. Moreover, the values for the CLint scaled in series [30], in series [31] and in [32] were 3.91 mL/min/kg, 3.11 mL/min/kg and 1.28 mL/min/kg, respectively.

For the origin of these results see ChEMBL document CHEMBL4673322, “Discovery and optimization of a potent and selective indazolamine series of IRAK4 inhibitors” (Bioorg Med Chem Lett, 2021).
